Measurements reported in ChEMBL document CHEMBL3885861, “Open TG-GATES”.

Species on record: Rattus norvegicus
Assay: Open TG-GATES - Regimen: Daily Repeat
Assay type: toxicity, organism-based, Sprague-Dawley
Set-up: regimen Daily Repeat, gender Male, age 6 weeks
Conditions: in vivo, po, 500 mg/kg, route gavage, dose level High; for APTT / Bas / Eos / Fbg / Hb / Ht / Lym / MCH / MCHC / MCV / Mono / Neu / PT / Plat / RBC / Ret / WBC: tissue Blood; for KIDNEY_L / KIDNEY_R / KIDNEY_TOTAL: tissue Kidney; for LIVER: tissue Liver; for A/G / ALP / ALT / AST / BUN / CRE / Ca / Cl / DBIL / GLC / IP / K / LDH / Na / PL / RALB / TBIL / TC / TG / TP / gamma-GTP: tissue Plasma

## CC(=O)Oc1cc(C(C)C)c(OCCN(C)C)cc1C [MOXISYLYTE]
72 h, time 3 day
  TERMINAL_BW: 224 g
  APTT: 20.8 s
  Bas: 0%
  Eos: 1%
  Fbg: 325 mg/dL
  Hb: 14.2 g/dL
  Ht: 40.8%
  Lym: 76%
  MCH: 21.2 pg
  MCHC: 34.8%
  MCV: 61 fL
  Mono: 2.8%
  Neu: 20%
  PT: 15.7 s
  Plat: 118.1 x10_4/uL
  RBC: 669.4 x10_4/ul
  Ret: 6.3%
  WBC: 95.6 x10_2/uL
  KIDNEY_L: 1 g
  KIDNEY_R: 1 g
  KIDNEY_TOTAL: 2 g
  LIVER: 10.7 g
  A/G: 1.3
  ALP: 1492.8 IU/L
  ALT: 46.6 IU/L
  AST: 77.6 IU/L
  BUN: 17.6 mg/dL
  CRE: 0.2 mg/dL
  Ca: 10.9 mg/dL
  Cl: 106.4 meq/L
  DBIL: 0.004 mg/dL
  GLC: 176.4 mg/dL
  IP: 7.6 mg/dL
  K: 4.4 meq/L
  LDH: 244.2 IU/L
  Na: 142.6 meq/L
  PL: 177.6 mg/dL
  RALB: 3.2 g/dL
  TBIL: 0.012 mg/dL
  TC: 92.2 mg/dL
  TG: 118.6 mg/dL
  TP: 5.8 g/dL
  gamma-GTP: 1.2 IU/L
[…], time 7 day
  TERMINAL_BW: 243.1 g
  APTT: 21.5 s
  Bas: 0%
  Eos: 0.8%
  Fbg: 317.8 mg/dL
  Hb: 13.6 g/dL
  Ht: 38.5%
  Lym: 76.6%
  MCH: 21 pg
  MCHC: 35.3%
  MCV: 59.4 fL
  Mono: 2.4%
  Neu: 19.6%
  PT: 15.4 s
  Plat: 118.7 x10_4/uL
  RBC: 649.6 x10_4/ul
  Ret: 4.8%
  WBC: 113.3 x10_2/uL
  KIDNEY_L: 1.1 g
  KIDNEY_R: 1.1 g
  KIDNEY_TOTAL: 2.1 g
  LIVER: 11.2 g
  A/G: 1.3
  ALP: 1348.8 IU/L
  ALT: 46.2 IU/L
  AST: 74.8 IU/L
  BUN: 19 mg/dL
  CRE: 0.2 mg/dL
  Ca: 10.6 mg/dL
  Cl: 105.8 meq/L
  DBIL: 0 mg/dL
  GLC: 168.8 mg/dL
  IP: 6.7 mg/dL
  K: 4.1 meq/L
  LDH: 205.6 IU/L
  Na: 141.6 meq/L
  PL: 169.8 mg/dL
  RALB: 3.1 g/dL
  TBIL: 0.012 mg/dL
  TC: 86.4 mg/dL
  TG: 120.8 mg/dL
  TP: 5.5 g/dL
  gamma-GTP: 1.4 IU/L
[…], time 14 day
  TERMINAL_BW: 311.5 g
  APTT: 22.2 s
  Bas: 0%
  Eos: 1%
  Fbg: 314.8 mg/dL
  Hb: 14.6 g/dL
  Ht: 39.8%
  Lym: 74.4%
  MCH: 21.2 pg
  MCHC: 36.7%
  MCV: 57.9 fL
  Mono: 2.2%
  Neu: 21.6%
  PT: 15.8 s
  Plat: 122.7 x10_4/uL
  RBC: 688.2 x10_4/ul
  Ret: 5%
  WBC: 116.2 x10_2/uL
  KIDNEY_L: 1.2 g
  KIDNEY_R: 1.3 g
  KIDNEY_TOTAL: 2.5 g
  LIVER: 14.8 g
  A/G: 1.2
  ALP: 1394 IU/L
  ALT: 43.6 IU/L
  AST: 69.2 IU/L
  BUN: 17.4 mg/dL
  CRE: 0.2 mg/dL
  Ca: 10.6 mg/dL
  Cl: 104.6 meq/L
  DBIL: 0 mg/dL
  GLC: 179.4 mg/dL
  IP: 6.7 mg/dL
  K: 3.7 meq/L
  LDH: 123.6 IU/L
  Na: 141.4 meq/L
  PL: 171 mg/dL
  RALB: 3.2 g/dL
  TBIL: 0.006 mg/dL
  TC: 83.2 mg/dL
  TG: 190 mg/dL
  TP: 5.8 g/dL
  gamma-GTP: 1 IU/L
[…], time 28 day
  TERMINAL_BW: 377.7 g
  APTT: 21.9 s
  Bas: 0%
  Eos: 1.2%
  Fbg: 311 mg/dL
  Hb: 15 g/dL
  Ht: 42.8%
  Lym: 79.2%
  MCH: 18.7 pg
  MCHC: 35.1%
  MCV: 53.3 fL
  Mono: 1.6%
  Neu: 17.4%
  PT: 15.3 s
  Plat: 105.2 x10_4/uL
  RBC: 802.6 x10_4/ul
  Ret: 2.9%
  WBC: 118.3 x10_2/uL
  KIDNEY_L: 1.4 g
  KIDNEY_R: 1.4 g
  KIDNEY_TOTAL: 2.8 g
  LIVER: 15.5 g
  A/G: 1.1
  ALP: 1129.4 IU/L
  ALT: 47.6 IU/L
  AST: 69.8 IU/L
  BUN: 17.6 mg/dL
  CRE: 0.2 mg/dL
  Ca: 10.7 mg/dL
  Cl: 106 meq/L
  DBIL: 0.004 mg/dL
  GLC: 189 mg/dL
  IP: 6.4 mg/dL
  K: 4.1 meq/L
  LDH: 151.2 IU/L
  Na: 142.2 meq/L
  PL: 173.6 mg/dL
  RALB: 3.2 g/dL
  TBIL: 0.008 mg/dL
  TC: 87 mg/dL
  TG: 152.2 mg/dL
  TP: 6.2 g/dL
  gamma-GTP: 2 IU/L
